The assay deals with T1, KRAS G12C 1-169, his-tagged protein, GDP-loaded (Homo sapiens, UniProt P01116, G12C).
T1 construct: KRAS G12C 1-169, his-tagged protein, GDP-loaded; His tag
Kind of assay: Biochemical assay: covalent modification of KRAS G12C measured by mass spectrometry (RapidFire/TOF or Q-Exactive). The settings on record: Modification Activity; modification percentage from deconvoluted MS peak intensities; compound concentration and incubation time for Table 2 not stated. The assay is classed as binding. On the procedure: Test compounds are prepared as 10 mM stock solutions in DMSO (Fisher cat # BP-231-100). KRAS G12C 1-169, his-tagged protein, GDP-loaded is diluted to 2 μM or 0.5 μM in buffer (20 mM Hepes, 150 mM NaCl, 1 mM MgCl2). Compounds are tested for activity as follows:
Compounds are diluted to 50× final test concentration in DMSO in 96-well storage plates. Compound stock solutions are vortexed before use and observed carefully for any sign of precipitation. Dilutions are as follow: • For 100 μM final compound concentration, compounds are diluted to 5000 μM (5 μL 10 mM compound stock+5 μL DMSO and mixed well by pipetting. • For 30 μM final compound concentration, compounds are diluted to 1500 μM (3 μL 10 mM compound stock+17 μL DMSO) and mixed well by pipetting. • For 10 μM final compound concentration, compounds are diluted to 500 μM (2 μL 10 mM compound stock+38 μL DMSO) and mixed well by pipetting. 49 μL of the stock protein solution is added to each well of a 96-well PCR plate (Fisher cat #1423027). 1 μl of the diluted 50× compounds are added to appropriate wells in the PCR plate using 12-channel pipettor. Reactions are mixed carefully and thoroughly by pipetting up/down with a 200 μL multi-channel pipettor. The plate is sealed well with aluminum plate seal, and stored in drawer at room temperature for 10 minutes, 30 minutes, 2 hours or 24 hours. 5 μL of 2% formic acid (Fisher cat # A117) in de-ionized H2O is then added to each well followed by mixing with a pipette. The plate is then resealed with aluminum seal and stored on dry ice until analyzed as described below.
The above described assays are analyzed by mass spectrometry according to one of the following two procedures:
The MS instrument is set to positive polarity, 2 GHz resolution, and low mass (1700) mode and allowed to equilibrate for 30 minutes. The instrument is then calibrated, switched to acquisition mode and the appropriate method loaded.
After another 30 minute equilibration time, a blank batch (i.e., buffer) is run to ensure equipment is operating properly. The samples are thawed at 37° C. for 10 minutes, briefly centrifuged, and transfer to the bench top. Wells A1 and H12 are spiked with 1 μL 500 μM internal standard peptide, and the plates centrifuged at 2000×g for 5 minutes. The method is then run and masses of each individual well recorded.
The masses (for which integration data is desired) for each well are pasted into the platemap and exported from the analysis. Masses for the internal standards are exported as well. The data at 50 ppm is extracted for the +19 charge state, and identity of well A1 is assigned using the internal standard spike and integrated. Peak data is exported as a TOF list and the above steps are repeated individually, for the +20, 21, 22, 23, 24, and 25 charge states.
The masses and peak intensities of KRAS G12C protein species are measured using a Dionex RSLCnano system (Thermo Scientific) connected to a Q Exactive Plus mass spectrometer (Thermo Scientific).
[…] of sample is each loaded onto a Aeris™ 3.6 μm WIDEPORE C4 200 Å, LC Column 50×2.1 mm column maintained at 40° C. at a flow rate of 600 μL/min with […] (0.1% formic acid in acetonitrile). The liquid chromatography conditions are 20% solvent B for 1 minute, 20% to 60% solvent B for 1.5 minutes, 60% to 90% solvent for 0.5 minute, 90% solvent B for 0.2 minute, 90% to 20% solvent B for 0.2 minute, and then equilibrated for 1.6 minute before the following sample injection. The flow rate is maintained at 600 μL/min throughout the sample analysis.
The mass spectrometer is operated in profile mode at a resolution of 17500, 5 microscans, using 50 msec max injection time and an AGC target of 1×10^6, and a full mass range from 800-1850 m/z is recorded. The HCD trapping gas is optimized for maximum sensitivity for intact proteins. […]

As to `C=CC(=O)N1CCN(c2cc(C#N)nc3c(F)c(-c4c(C)ccc5[nH]nc(C)c45)c(Cl)cc23)CC1` [Compound 29, 4-(4-acryloylpiperazin-1-yl)-6-chloro-7-(3,5-dimethyl-1H-indazol-4-yl)-8-fluoroquinoline-2-carbontrile], the Binding % entry was “++ (++ indicates binding activity from 50 to 85%)”. On to `C=CC(=O)N1CCN(c2cc(C(F)(F)F)nc3c(F)c(-c4c(C)ccc5cnn(C)c45)c(Cl)cc23)CC1` [Compound 23, 1-(4-(6-chlroo-7-(1,6-dimethyl-1H-indazol-7-yl)-8-fluoro-2-(trifluoromethyl)quino-lin-4-yl)piperazin-1-yl)prop-2-en-1-one], for which the Binding % result was “+ (+ indicates binding activity greater than 0% and up to 50%)”. Next, `C=CC(=O)N1C[C@H](C)N(c2ncnc3c(F)c(-c4c(C)ccc5cnn(C)c45)c(Cl)cc23)C[C@H]1C` [Compound 7, 1-((2R,5S)-4-((S)-6-chloro-7-(1,6-dimethyl-1H-indazol-7-yl)-8-fluoroquinazolin-4-yl)-2,5-dimethylpiperazin-1-yl)prop-2-en-1-one]: “+ (+ indicates binding activity greater than 0% and up to 50%)”; `C=CC(=O)N1CCN(c2c(C#N)cnc3c(F)c(-c4c(C)ccc5cnn(C6CC6)c45)c(Cl)cc23)C[C@H]1C` [Compound 26, 4-((R)-4-acryloyl-3-methylpiperazin-1-yl)-6-chloro-7-(1-cyclopropyl-6-methyl-1H-indazol-7-yl)-8-fluoroquinoline-3-carbonitrile]: “+++ (+++ indicates binding activity greater than 85%)”. In the case of `C=CC(=O)N1CCN(c2c(C#N)cnc3c(F)c(-c4c(C)ccc5cnn(C)c45)c(Cl)cc23)C[C@H]1C` [Compound 24, 4-((R)-4-acryloyl-3-methylpiperazin-1-yl)-6-chloro-7-(1,6-dimethyl-1H-indazol-7-yl)-8-fluoroquinoline-3-carbonitrile], the Binding % entry is given as “+++ (+++ indicates binding activity greater than 85%)”. Take `C=CC(=O)N1CCN(c2c(C#N)c(OCCCN(C)C)nc3c(F)c(-c4c(C)ccc5cnn(C)c45)c(Cl)cc23)CC1` [Compound 27, 4-(4-acryloylpiperazin-1-yl)-6-chloro-7-(1,6-dimethyl-1H-indazol-7-yl)-2-(3-(dimethylamino)pro-poxy)-8-fluoroquinoline-3-carbonitrile]: the Binding % result was “+++ (+++ indicates binding activity greater than 85%)”. As to `C=CC(=O)N1[C@H](C)CN(c2ncnc3c(F)c(-c4c(C)ccc5cnn(C)c45)c(Cl)cc23)C[C@@H]1C` (atropisomer, axis not shown) [Compound 9, 1-((2S,6R)-4-((S)-6-chloro-7-(1,6-dimethyl-1H-indazol-7-yl)-8-fluoroquinazolin-4-yl)-2,6-dimethylpiperazin-1-yl)prop-2-en-1-one], the Binding % result is “+ (+ indicates binding activity greater than 0% and up to 50%)”. As for `C=CC(=O)N1CCN(c2c(C#N)cnc3c(F)c(-c4c(C)ccc5[nH]nc(C)c45)c(Cl)cc23)CC1` [Compound 12, 4-(4-acryloylpiperazin-1-yl)-6-chloro-7-(3,5-dimethyl-1H-indazol-4-yl)-8-fluoroquinoline-3-carbonitrile], the Binding % entry is recorded as “++ (++ indicates binding activity from 50 to 85%)”. Take `C=CC(=O)N1CCN(c2ncnc3c(F)c(-c4c(C)ccc5[nH]nc(C)c45)c(Cl)cc23)CC1CC#N` (stereo not drawn) [Compound 31, 2-(1-acryloyl-4-(6-chloro-7-(3,5-dimethyl-1H-indazol-4-yl)-8-fluoroquinazolin-4-yl)piperazin-2-yl)acetonitrile]: the Binding % result was “+++ (+++ indicates binding activity greater than 85%)”.

For the origin of these results see US10736897B2, “Compounds and methods of use thereof for treatment of cancer” (Araxes Pharma LLC, priority 2017, dated 2020).
